Reference: patent US7842808B2, “Anti-migraine spirocycles” (Bristol-Myers Squibb Company, priority 2002, dated 2010)

Assays:
[1] = test system: CGRP-induced increase in laser Doppler facial blood flow; assay: Non-terminal laser Doppler facial blood flow model in non-human primate; assay type: in vivo, common marmoset (Callithrix jacchus); conditions: for % Inhibition of CGRP-induced increase in laser Doppler facial blood flow: iv, CGRP 10 μg/kg; for inhibition of CGRP-induced increase in laser Doppler facial blood flow (in words): delivered prior to hαCGRP (pre-treatment)
Source text: Overview. […] Non-human primates (e.g., marmosets) are the only animals known to have human-like CGRP receptor pharmacology conferred by the presence of the specific amino acid residue (Trp74) in their RAMP1 sequence which is responsible for the phenotype of the human receptor (Mallee et al. J Biol Chem 2002 277:14294). […] Peptide and small-molecule CGRP-receptor antagonists were used to validate the non-human primate model.
Animals. Adult male and female common marmosets (Callithrix jacchus) purchased from Harlan and weighing 350-550 g served as subjects. Other mammals endogenously expressing RAMP1 having Trp 74 or transgenic mammals with humanized RAMP1 having Trp 74 can also be employed in A compound described herein.
Anesthesia & Surgical Preparation. Animals are anesthetized by isoflurane inhalation in an induction chamber (4-5% rapid induction, maintained with 1-2.5%; Solomon et al., 1999). Anesthesia is maintained by delivering a constant supply of air:oxygen (50:50) and isoflurane via face mask, or by intubation and ventilation (with blood gas monitoring). Body temperature is maintained at 38±0.5° C. by placement on an automated temperature controlled surface with rectal probe. A small area of fur (approx. 1.5 cm square) is removed from one or both sides of the face by application of a depilatory cream and/or shaving. Surgical areas are clipped and prepared with betadine. An i.v. line is placed in any accessible vein for the administration of test compounds and CGRP-receptor agonist and, if needed, withdrawal of blood samples (max 2.5 ml, 10%) for blood gas monitoring and content analysis. A solution of 5% dextrose is administered i.v. in order to maintain blood sugar levels. Anesthesia depth is monitored by measuring blood pressure and heart rate using a non-invasive arm cuff method and a pulse oximeter, respectively. Guanethidine 5-10 mg/kg i.v., supplemented with 5 mg/kg i.v. as needed, may be given to stabilize the peak flux in facial blood flow seen with repeated stimulation-induced changes in blood flow (Escott et al., 1999; incorporated by reference herein). Microvascular blood flow is monitored by attaching a self adhesive laser Doppler flow probe to the facial skin.
Compound Administration Test compounds may be administered i.v. (0.01-5 ml/kg), i.m. (0.01-0.5 ml/kg), s.c. (0.01-5 ml/kg) or p.o. (0.1-10 ml/kg) (Diehl et al., 2001; incorporated by reference herein). CGRP-receptor agonists may be delivered i.v. (0.01-5 ml/kg), i.d. (10-100 μl/site) or s.c. (10-100 μl/site).

[2] = test system: human cerebral vessels (CGRP-induced dilation); assay: Ex Vivo Human Cerebral Artery Assay, reversal of CGRP-induced relaxation; conditions: reversal of 1 nM hCGRP-induced relaxation, vessels pre-contracted with 10 mM KCl
Source text: Rationale and Overview. To provided direct evidence of the ability for novel compounds to reverse CGRP-induced dilation in human cerebral vessels, an ex vivo assay was design. Briefly, isolated vessel rings were mounted in a tissue bath where vessels were pre-contracted with potassium chloride (KCl) and fully dilated with hCGRP, then this relaxation was reversed by the cumulative addition of CGRP-receptor antagonists (complete details follow).
Tissue Samples. Autopsy samples of human arteries were obtained from vendors (ABS Inc. or NDRI). All vessels were transported on ice-cold HEPES buffer (composition in mM: NaCl 130, KCl 4, KH2PO4 1.2, MgSO4 1.2, CaCl2 1.8, Glucose 6, NaHCO3 4, HEPES 10, EDTA 0.025). Upon receipt, the vessels were placed in cold Kreb's buffer (composition in mM: NaCl 118.4, KCl 4.7, KH2PO4 1.2, MgSO4 1.2, CaCl2 1.8, Glucose 10.1, NaHCO3 25) saturated with carbogen (5% CO2 and 95% oxygen).
Isolated Tissue Baths. The vessels were cleaned of connective tissues and cut into cylindrical segments of 4-5 mm in length. The vessels were then mounted in tissue baths between two stainless steel hooks; one of which is fixed and the other of which was connected to a force displacement transducer. The vessel tension was continuously recorded using a data acquisition system (Powerlab, ADInstruments, Mountain View, Calif.) connected to the transducer. The tissue baths containing Krebs buffer and mounted vessels were temperature (37° C.) and pH (7.4) controlled with continuous bubbling of carbogen. The artery segments were allowed to equilibrate for about 30-45 min until a stable resting tone was achieved. Prior to the assay, vessels were primed (conditioned) with 100 mM KCl and subsequently washed. The vessels were pre-contracted with 10 mM KCl and fully dilated with 1 nM hCGRP. Concentration-response curves to CGRP-receptor antagonists were performed by the cumulative addition of drugs in half log units in fully dilated vessels. At each concentration, the effects of the drugs were expressed as % reversal of CGRP-induced relaxation in each vessel. The actual assay and data analysis were performed for each vessel individually, fitting the concentration-response data to a four parameter logistic function by non-linear regression analysis, to estimate the EC50 values.

[3] = molecular target: T1, human CGRP receptor (SK-N-MC cells) (Homo sapiens, UniProt O60894+Q16602); assay: Schild analysis of CGRP stimulated cAMP production; assay type: cell-based; conditions: Schild plot slope
T1 construct: SK-N-MC cells that endogenously express the human CGRP receptor; endogenous in cells; host or cells: SK-N-MC cells
T1 sequence (Q16602 23-461): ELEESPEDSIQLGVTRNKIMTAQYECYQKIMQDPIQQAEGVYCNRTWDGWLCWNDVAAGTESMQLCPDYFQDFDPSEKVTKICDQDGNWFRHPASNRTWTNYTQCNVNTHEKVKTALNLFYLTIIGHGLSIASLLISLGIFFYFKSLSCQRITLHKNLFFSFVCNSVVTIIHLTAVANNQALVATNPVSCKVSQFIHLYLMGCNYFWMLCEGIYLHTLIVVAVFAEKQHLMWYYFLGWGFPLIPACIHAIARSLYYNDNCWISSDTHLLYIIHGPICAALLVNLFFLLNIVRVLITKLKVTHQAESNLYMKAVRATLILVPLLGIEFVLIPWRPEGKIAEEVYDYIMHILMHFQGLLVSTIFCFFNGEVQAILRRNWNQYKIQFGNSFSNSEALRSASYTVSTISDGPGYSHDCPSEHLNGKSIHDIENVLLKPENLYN
T1 sequence (O60894 27-148): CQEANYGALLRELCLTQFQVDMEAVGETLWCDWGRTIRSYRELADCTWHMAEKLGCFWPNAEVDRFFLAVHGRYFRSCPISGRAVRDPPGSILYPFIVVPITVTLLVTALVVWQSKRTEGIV
Method: Functional Antagonism. Antagonism of the compounds of invention was determined by measuring the formation of cyclic AMP (adenosine 3′5′-cyclic monophosphate) in SK-N-MC cells that endogenously express the human CGRP receptor. CGRP receptor complex is coupled with Gs protein and CGRP binding to this complex leads to the cyclic AMP production via Gs—dependent activation of an adenylate cyclase (Juaneda C et al., TiPS, 2000; 21:432-438; incorporated by reference herein). Consequently, CGRP receptor antagonists inhibit CGRP-induced cyclic AMP formation in SK-N-MC cells (Doods H et al., Br J Pharmacol, 2000; 129(3):420-423); incorporated by reference herein). For cyclic AMP measurements SK-N-MC cells were incubated with 0.3 nM CGRP alone or in the presence of various concentrations of the compounds of invention for 30 min at room temperature. Compounds of invention were pre-incubated with SK-N-MC cells for 15 min before the addition of CGRP to allow receptor occupancy (Edvinsson et al., Eur J Pharmacol, 2001, 415:39-44; incorporated by reference herein). Cyclic AMP was extracted using the lysis reagent and its concentration was determined by radioimmunoassay using RPA559 cAMP SPA Direct Screening Assay Kit (Amersham Pharmacia Biotech). IC50 values were calculated using Excel fit.
Schild Analysis. Schild analysis can be used to characterize the nature of antagonism of the compounds of invention. The dose response of CGRP stimulated cAMP production was generated either with CGRP alone, or in the presence of various concentrations of compounds of invention. The antagonist dose is plotted as X against the dose ratio (defined as IC50 of agonist with the presence of the compounds divided by the IC50 of the agonist alone) minus 1 as Y. Linear regression was then performed with both X and Y axis log-transformed. […] Kb is the dissociation constant of the antagonist.

Compound: hαCGRP(8-37): "the peptide antagonist hαCGRP(8-37)" [reference compound]
- % Inhibition of CGRP-induced increase in laser Doppler facial blood flow ([1]; 1 mg/kg): Z (Z>75%)
- inhibition of CGRP-induced increase in laser Doppler facial blood flow (in words) [1]: dose-dependently inhibited

Compound: O=C(N[C@H](Cc1ccc2[nH]ncc2c1)C(=O)N1CCC(N2CCCCC2)CC1)N1CCC(N2Cc3ccccc3NC2=O)CC1 [Example 2, (R)-4-(2-Oxo-1,4-dihydro-2H-quinazolin-3-yl)-piperidine-1-carboxylic acid[2-[1,4′]bipiperidinyl-1′-yl-1-(1H-indazol-5-ylmethyl)-2-oxo-ethyl]-amide]
- EC50 [2]: < 10 nM
- % Inhibition of CGRP-induced increase in laser Doppler facial blood flow ([1]; 0.01 mg/kg): W (W≦25%)
- % Inhibition of CGRP-induced increase in laser Doppler facial blood flow ([1]; 0.03 mg/kg): X (25%<X≦50%)
- % Inhibition of CGRP-induced increase in laser Doppler facial blood flow ([1]; 0.1 mg/kg): X (25%<X≦50%)
- % Inhibition of CGRP-induced increase in laser Doppler facial blood flow ([1]; 0.3 mg/kg): Y (50%<Y≦75%)
- % Inhibition of CGRP-induced increase in laser Doppler facial blood flow ([1]; 1 mg/kg): Z (Z>75%)
- inhibition of CGRP-induced increase in laser Doppler facial blood flow (in words) [1]: dose-dependently inhibits
- slope [3]: 0.94

Compound: O=C(NC(Cc1ccc2[nH]ncc2c1)C(=O)N1CCC(N2CCCCC2)CC1)N1CCC(N2Cc3ccccc3NC2=O)CC1 (racemic) [Example 6, (±)-4-(2-Oxo-1,4-dihydro-2H-quinazolin-3-yl)-piperidine-1-carboxylic acid[2-[1,4′]bipiperidinyl-1′-yl-1-(1H-indazol-5-ylmethyl)-2-oxo-ethyl]-amide]
- EC50 [2]: < 10 nM
- % Inhibition of CGRP-induced increase in laser Doppler facial blood flow ([1]; 1 mg/kg): Z (Z>75%)
- slope [3]: 0.93
